Assay results taken from US7390523B2, “Method of forming a diffusion barrier layer for implantable devices” (Advanced Cardiovascular Systems Inc., priority 2000, dated 2008).
Values joined by “and” are separate entries in the source; they are usually repeats but may differ in a detail not shown here. Equal entries are not always repeated. Values belong to the molecule of their own block, whether it stands above or below them. *1 amine or outer side, *2 acyl side, *3 side chain or, on linkers, in order; H or OH if unused. Where a SMILES comes first, the peptide text is derived from it. Bridges are numbered along the chain shown (N, C = ends). Roman numbers before positions name the chains, in order. [ ]: non-standard residue; d: D form. Actinocin(9to1) = Cc1c2oc3c(C)ccc(C(=O)[*:1])c3nc-2c(C(=O)[*:2])c(N)c1=O; NMeV = CN[C@H](C(=O)O)C(C)C; Sar = CNCC(=O)O

How the values were obtained:
[1] = 24 hour elution of vinblastine from EVOH coated stents in phosphated saline solution, HPLC analysis; assay type: physicochemical; conditions: for ug Release: Sterilized (electron beam) stent, 5 ml phosphated saline pH 7.4, room temperature; for Total uG Released / uG Release per Hour: Sterilized stent
Method: MULTI-LINK® stents were cleaned by placement in an ultrasonic bath of isopropyl alcohol solution for 10 minutes. The stents were dried and plasma cleaned in a plasma chamber. An EVOH solution was made with 1 gram of EVOH and 7 grams of DMSO, making an EVOH:DMSO ratio of 1:7. Vinblastine was added to the 1:7 EVOH:DMSO solution. Vinblastine constituted 2.5% by weight of the total weight of the solution. The solution was vortexed and placed in a tube. The cleaned MULTI-LINK® stents were attached to mandrel wires and dipped into the solution. The coated stents were passed over a hot plate, for about 3-5 seconds, with a temperature setting of about 60° C. The coated stents were cured for 6 hours in an air box then placed in a vacuum oven at 60° C. for 24 hours. The above process was repeated twice, having a total of three layers. The average weight of the coating was 0.00005 gram, with an estimated vinblastine concentration of 12 microgram per stent. Some of the stents were sterilized by electron beam radiation. The sterilized and unsterilized vinblastine coated stents were tested for a 24 hour elution period by placing one sterilized and one unsterilized stent in 5 ml of phosphated saline solution (pH 7.4) at room temperature with rotational motion. The amount of vinblastine eluted was evaluated by High Performance Liquid Chromatography (HPLC) analysis. The results of this test are given below in Tables 4A and 4B and plotted in FIG. 3.

[2] = system: coronary arteries of a porcine stent injury model; assay: Reduction in restenosis in the porcine coronary artery stent injury model; assay type: in vivo, Domestic swine; conditions: 28-day endpoint; for Percent Diameter Stenosis, angiographic data (QCA): microporous balloon catheter delivery before stenting
Method: Porcine coronary models were used to assess the degree of the inhibition of neointimal formation in the coronary arteries of a porcine stent injury model by Actinomycin D, delivered with a microporous balloon catheter (1×10^6 pores/mm^2 with sizes ranging from 0.2-0.8 micron).
The preclinical animal testing was performed in accordance with the NIH Guide for Care and Use of Laboratory Animals. Domestic swine were utilized to evaluate effect of the drug on the inhibition of the neointimal formation. Each testing procedure, excluding the angiographic analysis at the follow-up endpoints, was conducted using sterile techniques. During the study procedure, the activated clotting time (ACT) was monitored regularly to ensure appropriate anticoagulation. Base line blood samples were collected for each animal before initiation of the procedure. Quantitative coronary angiographic analysis (QCA) and intravascular ultrasound (IVUS) analysis was used for vessel size assessment.
The vessels at the sites of the delivery were denuded by inflation of the PTCA balloons to 1:1 balloon to artery ratio and moving the balloons back and forth 5 times. The drug was delivered to the denuded sites at 3.5 atm (3.61 Kg/sq cm) for 2 minutes using the microporous balloon catheters before stent deployment. The average volume of delivery was about 3.3+/−1.2 ml. Following drug delivery, stents were deployed at the delivery site such that final stent to artery ratio was 1.1:1.
QCA and IVUS analyses were used for stent deployment guidance. Pre-stenting IVUS measurements of the lumen size at the targeted vessel sites were performed for determination of the balloon (size) inflation pressure. Quantitative analysis of the stented coronary arteries to compare pre-stenting, post-stenting, follow-up minimal luminal diameters, stent recoil, and balloon/stent to artery ratio were performed. Following stent implantation and final angiogram, all devices were withdrawn and the wounds closed; the animals were allowed to recover from anesthesia as managed by the attending veterinarian or animal care professionals at the research center.
Upon return to the research laboratory at the 28-day endpoint, angiographic assessments were performed. Coronary artery blood flow was assessed and the stented vessels were evaluated to determine minimal lumen diameter. The animals were euthanized following this procedure at the endpoint. Following euthanasia, the hearts were pressure perfusion fixed with formalin and prepared for histological analysis, encompassing light microscopy, and morphometry. Morphometric analysis of the stented arteries included assessment of the position of the stent struts and determination of vessel/lumen areas, percent (%) stenosis, injury scores, intimal and medial areas and intima/media ratios. Percent stenosis is quantitated by the following equation: 100(IEL area−lumen area)/IEL area
where IEL is the internal elastic lamia.
The control group of animals received delivery of water instead of the drug. The test group of animals received actinomycin D in two different concentration of 10^−5M and 10^−4M. […] FIGS. 5A and 5B illustrate sample pictures of the histology slides of the coronary vessels from the control and the Dose 1 group, respectively.

ug Release ([1]; 0 Hours): 0 µg
ug Release ([1]; 0.5 Hours): 2.14 µg
ug Release ([1]; 3 Hours): 1.7 µg
ug Release ([1]; 4 Hours): 0.28 µg
ug Release ([1]; 6 Hours): 0.26 µg
ug Release ([1]; 24 Hours): 2.05 µg
Total uG Released ([1]; 0 Hours): 0 uG
uG Release per Hour ([1]; 0 Hours): 0 uG per Hour
Total uG Released ([1]; 0.5 Hours): 2.14 uG
uG Release per Hour ([1]; 0.5 Hours): 4.28 uG per Hour
Total uG Released ([1]; 3 Hours): 3.84 uG
uG Release per Hour ([1]; 3 Hours): 0.68 uG per Hour
Total uG Released ([1]; 4 Hours): 4.12 uG
uG Release per Hour ([1]; 4 Hours): 0.28 uG per Hour
Total uG Released ([1]; 6 Hours): 4.38 uG
uG Release per Hour ([1]; 6 Hours): 0.13 uG per Hour
Total uG Released ([1]; 24 Hours): 6.43 uG
uG Release per Hour ([1]; 24 Hours): 0.11 uG per Hour
effect of electron beam radiation procedure on the release of vinblastine from EVOH ([1]; sterilized vs unsterilized coated stents, 24 hour elution): does not interfere
Structure (SMILES): CC[C@]1(O)C[C@@H]2CN(CCc3c([nH]c4ccccc34)[C@@](C(=O)OC)(c3cc4c(cc3OC)N(C)[C@H]3[C@@](O)(C(=O)OC)[C@H](OC(C)=O)[C@]5(CC)C=CCN6CC[C@]43[C@@H]65)C2)C1 [Vinblastine]

Structure (SMILES): Cc1c2oc3c(C)ccc(C(=O)N[C@@H]4C(=O)N[C@H](C(C)C)C(=O)N5CCC[C@H]5C(=O)N(C)CC(=O)N(C)[C@@H](C(C)C)C(=O)O[C@@H]4C)c3nc-2c(C(=O)N[C@@H]2C(=O)N[C@H](C(C)C)C(=O)N3CCC[C@H]3C(=O)N(C)CC(=O)N(C)[C@@H](C(C)C)C(=O)O[C@@H]2C)c(N)c1=O [actinomycin D] (I: T[dV]P[Sar][NMeV] / II: T[dV]P[Sar][NMeV]; ester I:1-I:C, II:1-II:C; linker I:N-II:N via Actinocin(9to1))
Percent Stenosis (IEL area-lumen area)/IEL area, histomorphometric data ([2]; DOSE 1 1E−05 M, n = 30): 51.8%
Residual Lumen (Lumen area)/IEL area, histomorphometric data ([2]; DOSE 1 1E−05 M, n = 30): 0.49
Percent Diameter Stenosis, angiographic data (QCA) ([2]; DOSE 1 1E−05 M, n = 10): 36.8%
Percent Stenosis (IEL area-lumen area)/IEL area, histomorphometric data ([2]; DOSE 2 1E−04 M, n = 21): 54.1%
Residual Lumen (Lumen area)/IEL area, histomorphometric data ([2]; DOSE 2 1E−04 M, n = 21): 0.46
Percent Diameter Stenosis, angiographic data (QCA) ([2]; DOSE 2 1E−04 M, n = 7): 32.3+/−11.7% and 32.3%
